Entries after “also recorded” stand apart in the source; their conditions may differ. Like-named read-outs stand apart in the source and are kept apart here. *1 amine or outer side, *2 acyl side, *3 side chain or, on linkers, in order; H or OH if unused. Cysteamide = C(CS[*:3])N[*:1]
Columns and labels:
Leishmania tarentolae [1] = test: Cytotoxicity test for Leishmania tarentolae (morphology and motility); assay type: cell-based
Method: Leishmania cells were cultivated as described previously, resuspended in PBS and treated with increasing concentrations of cocktails and CPPs for 1 h. Cytotoxic effects were monitored by changes in morphology and motility observed using a microscope at 400-fold magnification.

Jurkat cells = test: Internalization of β-galactosidase into Jurkat cells, X-gal staining; assay type: cell-based, Human; conditions: complexes of β-galactosidase and CPP, ratio 1:10, X-Gal staining
Method: (§1) A detailed description of formation of complexes with peptides and proteins is given in a previous publication. Briefly, cargo proteins (ATTO488-BSA, MW ≈ 68 kDa, β-galactosidase, MW ≈ 540 kDa) and the calculated volume of stock solution of CPPs or JBS-Proteoducin were dissolved separately in 100 µL of 1× PBS). Both solutions were thoroughly mixed by repeated pipetting. The mixture was incubated for 30 minutes at 37 °C to achieve complex formation. The molar ratio of cargo to CPPs was usually calculated to 1:10. For internalization of higher amounts of cargo, both the amount of protein and stock solution of CPP or cocktail, respectively, were multiplied. Complexes of the enzyme β-galactosidase and JBS-Proteoducin were formed from 1 µg β-galactosidase and 1 µL stock solution of JBS-Proteoducin under the described conditions.
The thoroughly washed cell pellet was suspended in 200 µL of complex solution followed by 400 µL of serum free medium, gently mixed and transferred into 24-well plates. […] After addition of 1.4 mL of complete culture medium incubation was continued at 37 °C for approx. 2 h in a humidified atmosphere containing 5% CO2. The cells were washed by spinning down twice with PBS, three times with glycine buffer (pH 3.0) and twice with PBS.
(§2) Staining of the cells took place in multiwell-plates. Jurkat and Leishmania cells were stained according to the instructions described in [24], using a staining solution containing potassium ferrocyanide, potassium ferricyanide and X-gal. Leishmania cells were stained after finishing the above described transduction protocol. For Jurkat cells the staining was performed after transferring cells from spinning tubes used in the last washing step to 24-well plates. Cells were incubated in staining solution overnight and directly observed in a microscope using a 400-fold magnification.

HeLa cells [2] = conditions: non-covalent complexes, X-Gal staining; cited from earlier work
From the text: HeLa cells: As shown in our preceding publication, the CPP cocktail JBS-Proteoducin can internalize enzymatic active β-galactosidase into all cell types investigated, including difficult to transfect Kasumi-1 cells. The active enzyme was transported not only into all types of cells but all of the observed cells are also positively stained using the β-galactosidase substrate 5-bromo-4-chloro-indolyl-β-D-galactopyranoside (X-Gal).

HeLa cells [3] = conditions: non-covalent complexes; cited from earlier work
Method: Table 4 Intracellular amounts and concentrations. Internalized amounts are calculated from fluorescence intensities in the homogenate directly or after separation by SDS-PAGE. In the case of nucleoside triphosphates quantification was performed by fluorescence spectrometry. Estimation of cell volumes allows the calculation of intracellular concentrations. […] The rank order for the uptake of β-galactosidase into HeLa cells: JBS-Proteoducin > MPGα ≥ MPGβ > CAD-2 >> CPPP-2 // HIV-TAT = penetratin provides evidence for different requirements of enzyme and nucleotide for co ...

Leishmania tarentolae [4] = test: Transduction of ATTO488-BSA into Leishmania tarentolae; assay type: cell-based; conditions: molar ratio 1:10, Leishmania tarentolae, fluorescence plate reader after cell lysis
Method: as §1, with “Complexes of the enzyme β-galactosidase and JBS-Proteoducin were formed from 1 µg β-galactosidase and 1 µL stock solution of JBS-Proteoducin under the described conditions.” left out
For confocal microscopy of fixed and living cells, a LSM 710 laser scanning confocal microscope was used as previously described. […] To avoid bleed-through effects in multi-fluorescence staining experiments, each dye was scanned independently in a multitracking mode. […]
Quantitative fluorescence measurements on internalized fluorescent nucleotide and SDS-PAGE with fluorescent proteins allow the calculation of the internalized amount of cargo. […] The mean volume was calculated to 1.2 × 10^−5 µL. […] Uptake of ATTO488-BSA into Leishmania tarentolae was estimated with a fluorescence plate reader after cell lysis. The volume of Leishmania tarentolae was calculated to 2.0 × 10^−7 µL.

Leishmania tarentolae [5] = conditions: non-covalent complexes; cited from earlier work
From the text: Formation of non-covalent complexes between cargo and CPP occurs by optimized interaction of the CPP with the surface of the cargo. These complexes are stabilized by ionic, polar, π-electron-cation, or hydrophobic interactions, hydrogen bonds and common interactions between molecules. Thus, for the same cell type different cargoes show different rank orders for CPPs.

Leishmania tarentolae [6] = test: Internalization of β-galactosidase into Leishmania tarentolae, X-gal staining; assay type: cell-based; conditions: molar ratios 1:5, 1:10, 1:20 of cargo and CPP
Method: as §1
For transduction cells in an early stage of development were used. To this end stock cultures were diluted 1:10 the day before the experiment into 10 mL of culture medium in 25 cm^2-ventilated tissue culture flasks and were incubated overnight in the dark at 26 °C for optimal proliferation. Cell suspensions with an OD of 1.2 (ca. 4 × 10^7 cells/mL) were used for transduction. The cells were thoroughly washed twice with PBS (5 mL each) by centrifugation (2,000 × g, 3 min). Pellets were resuspended in the original volume of PBS containing 0.1% BSA and aliquoted into 24-well plates. Four hundred µL of cell suspension were used per experiment. Two hundred µL of the complex solutions were added to these cells and mixtures were incubated for 1 h at 26 °C in the dark with gentle agitation. Successively, 1 mL of complete growth medium (LEXSY BHI) was added per sample and incubation was continued at 26 °C for 2 h. Cells were washed twice with PBS (2 mL each) by centrifugation (2,000 × g, 3 min) prior to analysis of transduction.
as §2

COS-7 cells = test: Degradation of CPPs by secreted and surface bound proteases of COS-7 cells; conditions: 60 min incubation with 0.3 × 10^6 intact cells per well, PBS, 37 °C, 5% CO2, RP18 HPLC, 220 nm
Method: (§3) In a 6-well-plate with 0.3 × 10^6 cells per well the different cell types were cultivated overnight under optimized conditions. Then medium was removed by aspiration (adherent cell) or centrifugation (suspension cells) and washed cells were incubated with CPPs in phosphate buffer solution (PBS). Incubation was performed under the same conditions as the transduction of complexes with the cargo for 1 h at 37 °C in a humidified atmosphere containing 5% CO2. After 15, 30, 45 and 60 min samples of 200 µL were taken and the proteolytic reaction was stopped by addition of 50 µL 37 perc. HCl. After freezing and lyophilization samples were analyzed by analytical high performance liquid chromatography (HPLC), using a RP18 column (Vydac 218TP). In case of MPGβ, for elution a gradient was used from 10% acetonitrile and 90% water, both containing 0.1% trifluoroacetic acid to 60% acetonitrile and 40% water in 50 min. […] The flow rate was 1.0 ml/min and detection was performed at 220 nm.

NB-4 cells [7] = test: Membrane integrity, CytoTox-Glo assay, NB-4 cells; assay type: cell-based, Human; conditions: low concentrations (9.4 µM), 1 h at 37 °C in serum-free medium, triplicates
Method: (§4) Cells were cultured under standard conditions and treated in serum-free medium for 1 h at 37 °C with different CPPs and the cocktail. After removal of CPPs and repeated washings the membrane integrity of the cells was estimated by the bioluminescence test CytoTox-Glo measuring the release of a cytosolic dead-cell protease. The CytoTox-Glo assay was performed according to the supplier’s instructions and adapted to 96-well plates. Bioluminescence was estimated by a luminescence plate reader. Each value was measured in triplicates with an SD of ± 1.2.

different cell lines = test: Membrane integrity, CytoTox-Glo assay, different cell lines; assay type: cell-based; conditions: up to 141 µM, 1 h at 37 °C in serum-free medium, triplicates
Method: as §4

NB-4 cells [8] = test: Degradation of CPPs by proteases of NB-4 cells; assay type: in vitro ADME, Human; conditions: 60 min incubation with 0.3 × 10^6 intact cells per well, PBS, 37 °C, 5% CO2, RP18 HPLC, 220 nm
Method: as §3

HeLa cells [9] = test: Membrane integrity, CytoTox-Glo assay, HeLa cells; assay type: cell-based, Human; conditions: low concentrations (9.4 µM), 1 h at 37 °C in serum-free medium, triplicates
Method: as §4

[10] = tested on: most of the cells investigated; test: Proteolytic stability of CPPs compared over the cells investigated; assay type: in vitro ADME; conditions: incubation with intact cells up to 60 min, PBS, 37 °C, HPLC
Method: as §3

[11] = 1 h in PBS with increasing concentrations, changes in morphology and motility, microscope 400-fold

Substance | Cytotoxicity in Leishmania tarentolae (Leishmania tarentolae [1]) | rank order for internalization of β-galactosidase into Jurkat cells (Jurkat cells) | rank order for internalization of β-galactosidase into HeLa cells (HeLa cells [2]) | rank order of uptake efficiency of ATTO488-dUTP into HeLa cells (HeLa cells [3]) | Internalized amount, amol per cell (Leishmania tarentolae [4]; cargo ATTO488-BSA 1 µg + CPP) | Internalized amount, amol per cell (Leishmania tarentolae [4]; cargo ATTO488-BSA 10 µg + CPP) | rank order for transport of ATTO488-labeled BSA into Leishmania (Leishmania tarentolae [5]) | rank order for uptake efficiency of β-galactosidase into Leishmania tarentolae (Leishmania tarentolae [6]) | Cytotoxicity in Leishmania tarentolae (Leishmania tarentolae [1]; [11]) | stability against proteolytic cleavage by COS-7 cells (HPLC peak) (COS-7 cells) | membrane integrity of NB-4 cells (release of dead-cell protease) (NB-4 cells [7]) | reduction of membrane integrity with increasing concentrations (different cell lines) | stability against proteolytic cleavage by NB-4 cells (HPLC peak) (NB-4 cells [8]) | membrane integrity of HeLa cells (release of dead-cell protease) (HeLa cells [9]) | relative proteolytic stability among the CPPs [10] | sensitivity of Leishmania tarentolae cells (Leishmania tarentolae [1]; concentrations of 10 µM, morphology and motility)
Ac-GALFLAFLAAALSLMGLWSQPKKKRKV-NH-CH2-CH2-SH (Ac-GALFLAFLAAALSLMGLWSQPKKKRKV-Cysteamide; SMILES CSCC[C@H](NC(=O)[C@H](CC(C)C)NC(=O)[C@H](CO)NC(=O)[C@H](CC(C)C)NC(=O)[C@H](C)NC(=O)[C@H](C)NC(=O)[C@H](C)NC(=O)[C@H](CC(C)C)NC(=O)[C@H](Cc1ccccc1)NC(=O)[C@H](C)NC(=O)[C@H](CC(C)C)NC(=O)[C@H](Cc1ccccc1)NC(=O)[C@H](CC(C)C)NC(=O)[C@H](C)NC(=O)CNC(C)=O)C(=O)NCC(=O)N[C@@H](CC(C)C)C(=O)N[C@@H](Cc1c[nH]c2ccccc12)C(=O)N[C@@H](CO)C(=O)N[C@@H](CCC(N)=O)C(=O)N1CCC[C@H]1C(=O)N[C@@H](CCCCN)C(=O)N[C@@H](CCCCN)C(=O)N[C@@H](CCCCN)C(=O)N[C@@H](CCCNC(=N)N)C(=O)N[C@@H](CCCCN)C(=O)N[C@H](C(=O)NCCS)C(C)C) [MPGα, MPG cell penetrating peptide, 5 positive charges] | ≤ 5 µM | JBS-Proteoducin > MPGβ > MPGα > CAD-2 >> CPPP-2 | JBS-Proteoducin > MPGα ≥ MPGβ > CAD-2 >> CPPP-2 // HIV-TAT, penetratin | JBS-Nucleoducin > CAD-2 > MPGα ≥ MPGβ > penetratin >> CPP-2 | 0.8 x 10^−2 amol per cell | 3.3 x 10^−2 amol per cell | MPGα >> CAD-2 > histone | CAD-2 > MPGα > Histone > MPGβ >> penetratin ≥ HIV-TAT ≥ CPPP-2 | – | – | – | – | – | – | – | –
KLPVM [CPPP-2, cell penetrating pentapeptide, 2 positive charges] | – | JBS-Proteoducin > MPGβ > MPGα > CAD-2 >> CPPP-2 | JBS-Proteoducin > MPGα ≥ MPGβ > CAD-2 >> CPPP-2 // HIV-TAT, penetratin | JBS-Nucleoducin > CAD-2 > MPGα ≥ MPGβ > penetratin >> CPP-2 | – | – | – | CAD-2 > MPGα > Histone > MPGβ >> penetratin ≥ HIV-TAT ≥ CPPP-2 | ≥ 100 µM | – | – | – | – | – | – | –
YGRKKRRQRRR-amide [HIV-TAT (47-57), amphiphilic-cationic cell penetrating peptide, 9 positive charges] | – | – | JBS-Proteoducin > MPGα ≥ MPGβ > CAD-2 >> CPPP-2 // HIV-TAT, penetratin | not able to transport | – | – | – | CAD-2 > MPGα > Histone > MPGβ >> penetratin ≥ HIV-TAT ≥ CPPP-2 | ≥ 30 µM | – | – | – | – | – | – | –
GLWRALWRLLRSLWRLLWKA-NH-CH2-CH2-SH [CAD-2, des-acetyl, Lys^19-CADY, cell penetrating peptide, 6 positive charges] | ≤ 25 µM | JBS-Proteoducin > MPGβ > MPGα > CAD-2 >> CPPP-2 | JBS-Proteoducin > MPGα ≥ MPGβ > CAD-2 >> CPPP-2 // HIV-TAT, penetratin | JBS-Nucleoducin > CAD-2 > MPGα ≥ MPGβ > penetratin >> CPP-2 | – | – | MPGα >> CAD-2 > histone | CAD-2 > MPGα > Histone > MPGβ >> penetratin ≥ HIV-TAT ≥ CPPP-2 | – | remains stable | sensitive | very low | remains stable | sensitive | nearly unaffected; also recorded: most stable | –
Ac-GALFLGFLGAAGSTMGAWSQPKKKRKV-NH-CH2-CH2-SH [MPGβ, MPG cell penetrating peptide, 5 positive charges] | – | JBS-Proteoducin > MPGβ > MPGα > CAD-2 >> CPPP-2 | JBS-Proteoducin > MPGα ≥ MPGβ > CAD-2 >> CPPP-2 // HIV-TAT, penetratin | JBS-Nucleoducin > CAD-2 > MPGα ≥ MPGβ > penetratin >> CPP-2 | – | – | – | CAD-2 > MPGα > Histone > MPGβ >> penetratin ≥ HIV-TAT ≥ CPPP-2 | ≤ 5 µM | strongly reduced | – | – | – | – | – | very sensitive
